Experimental findings from article PMC11167047 (Cell Death Discovery, 2024) are described below.

Common to all, as to test: kinome screen (33PanQinase)
Format in all cases: biochemical

One assay deals with T1, CK1γ2 (Homo sapiens, UniProt P78368).
T1 construct: purchased Reaction Biology Europe GmbH (formerly ProQinase)
As for the experimental part:
(§1) The Kinome Screening was performed by Reaction Biology Europe GmbH (http://reactionbiology.com; Freiburg i. Br., Germany).

In a further assay the target is T2, CK2α2 (Homo sapiens, UniProt P19784).
T2 construct: purchased Reaction Biology Europe GmbH (formerly ProQinase)
T2 sequence (P19784 whole entry): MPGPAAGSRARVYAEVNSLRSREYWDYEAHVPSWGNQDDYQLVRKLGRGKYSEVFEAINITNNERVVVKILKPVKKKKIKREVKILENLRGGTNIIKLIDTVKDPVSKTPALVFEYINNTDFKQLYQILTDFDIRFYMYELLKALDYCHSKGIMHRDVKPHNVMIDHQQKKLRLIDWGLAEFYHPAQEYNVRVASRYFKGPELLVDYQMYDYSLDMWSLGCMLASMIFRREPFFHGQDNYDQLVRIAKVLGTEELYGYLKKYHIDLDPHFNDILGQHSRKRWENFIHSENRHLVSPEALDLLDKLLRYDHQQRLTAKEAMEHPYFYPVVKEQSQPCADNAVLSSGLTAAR
Here is the method:
as §1

For the next assay, the target named is T3, CLK2 (Homo sapiens, UniProt P49760).
T3 construct: purchased Reaction Biology Europe GmbH (formerly ProQinase)
Here is the method:
as §1

Another assay has as its target T4, DCAMKL2 (Homo sapiens, UniProt Q8N568).
T4 construct: purchased Reaction Biology Europe GmbH (formerly ProQinase)
T4 sequence (Q8N568 1-766): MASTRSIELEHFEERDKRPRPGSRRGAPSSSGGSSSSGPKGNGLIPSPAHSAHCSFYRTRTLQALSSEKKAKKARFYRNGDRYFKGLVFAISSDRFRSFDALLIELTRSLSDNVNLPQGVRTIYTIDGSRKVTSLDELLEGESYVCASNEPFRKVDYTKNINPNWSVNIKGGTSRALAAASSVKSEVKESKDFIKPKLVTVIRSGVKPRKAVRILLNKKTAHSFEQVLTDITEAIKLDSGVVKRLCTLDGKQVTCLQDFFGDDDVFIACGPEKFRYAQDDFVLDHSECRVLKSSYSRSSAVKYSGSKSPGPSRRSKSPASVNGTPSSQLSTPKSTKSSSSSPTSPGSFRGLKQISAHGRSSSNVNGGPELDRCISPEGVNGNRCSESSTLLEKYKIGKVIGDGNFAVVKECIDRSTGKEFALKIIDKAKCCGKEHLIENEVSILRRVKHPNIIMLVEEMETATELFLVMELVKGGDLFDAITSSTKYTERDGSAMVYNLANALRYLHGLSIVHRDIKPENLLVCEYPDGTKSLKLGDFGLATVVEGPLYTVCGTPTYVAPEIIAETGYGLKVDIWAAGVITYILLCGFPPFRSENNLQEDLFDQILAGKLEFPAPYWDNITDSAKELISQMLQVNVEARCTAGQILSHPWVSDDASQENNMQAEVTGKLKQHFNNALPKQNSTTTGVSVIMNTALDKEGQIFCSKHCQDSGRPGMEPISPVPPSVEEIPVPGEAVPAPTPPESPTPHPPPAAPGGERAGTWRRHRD
Here is the method:
as §1

The next assay deals with T5, DDR2 (Homo sapiens, UniProt Q16832).
T5 construct: purchased Reaction Biology Europe GmbH (formerly ProQinase)
T5 sequence (Q16832 22-855): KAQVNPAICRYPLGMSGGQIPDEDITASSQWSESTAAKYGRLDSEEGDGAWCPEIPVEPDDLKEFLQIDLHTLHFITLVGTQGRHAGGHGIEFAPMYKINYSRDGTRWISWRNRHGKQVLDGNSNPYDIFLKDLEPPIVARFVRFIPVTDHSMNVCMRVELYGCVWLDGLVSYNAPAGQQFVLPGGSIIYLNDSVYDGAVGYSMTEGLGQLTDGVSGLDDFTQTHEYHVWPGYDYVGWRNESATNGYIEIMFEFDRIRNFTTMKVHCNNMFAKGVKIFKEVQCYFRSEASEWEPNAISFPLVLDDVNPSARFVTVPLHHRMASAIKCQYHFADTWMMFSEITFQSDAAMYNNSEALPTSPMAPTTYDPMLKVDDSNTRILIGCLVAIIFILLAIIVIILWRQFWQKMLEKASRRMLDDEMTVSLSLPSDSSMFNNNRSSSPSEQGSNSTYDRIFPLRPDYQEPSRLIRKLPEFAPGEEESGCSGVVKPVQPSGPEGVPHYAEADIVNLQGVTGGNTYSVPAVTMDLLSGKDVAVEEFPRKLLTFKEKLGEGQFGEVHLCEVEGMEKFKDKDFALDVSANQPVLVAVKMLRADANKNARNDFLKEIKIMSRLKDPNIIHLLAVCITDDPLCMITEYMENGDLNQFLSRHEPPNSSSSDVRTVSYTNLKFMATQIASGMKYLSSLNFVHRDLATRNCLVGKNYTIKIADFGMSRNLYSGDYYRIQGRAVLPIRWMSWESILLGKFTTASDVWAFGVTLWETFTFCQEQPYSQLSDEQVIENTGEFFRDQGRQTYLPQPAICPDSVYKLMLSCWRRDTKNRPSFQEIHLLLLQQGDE
As for the experimental part: as §1

In a further assay the target is T6, MKNK2 (Homo sapiens, UniProt Q9HBH9).
T6 construct: purchased Reaction Biology Europe GmbH (formerly ProQinase)
T6 sequence (Q9HBH9 whole entry): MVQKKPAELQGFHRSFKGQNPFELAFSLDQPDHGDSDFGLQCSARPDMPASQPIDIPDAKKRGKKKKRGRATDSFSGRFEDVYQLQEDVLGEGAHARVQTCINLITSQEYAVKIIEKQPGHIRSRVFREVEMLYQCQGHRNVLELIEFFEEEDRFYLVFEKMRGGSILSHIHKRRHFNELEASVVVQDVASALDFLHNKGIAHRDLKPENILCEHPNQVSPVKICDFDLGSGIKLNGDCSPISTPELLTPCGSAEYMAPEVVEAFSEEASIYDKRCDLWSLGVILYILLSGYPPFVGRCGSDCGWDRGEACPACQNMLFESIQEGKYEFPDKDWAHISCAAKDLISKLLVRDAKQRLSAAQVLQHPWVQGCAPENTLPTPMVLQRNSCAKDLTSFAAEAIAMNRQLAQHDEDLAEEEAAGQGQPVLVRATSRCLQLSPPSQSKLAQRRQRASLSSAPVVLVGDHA
Here is the method: as §1

In the next assay the target is T7, PKN3 (Homo sapiens, UniProt Q6P5Z2).
T7 construct: purchased Reaction Biology Europe GmbH (formerly ProQinase)
T7 sequence (Q6P5Z2 whole entry): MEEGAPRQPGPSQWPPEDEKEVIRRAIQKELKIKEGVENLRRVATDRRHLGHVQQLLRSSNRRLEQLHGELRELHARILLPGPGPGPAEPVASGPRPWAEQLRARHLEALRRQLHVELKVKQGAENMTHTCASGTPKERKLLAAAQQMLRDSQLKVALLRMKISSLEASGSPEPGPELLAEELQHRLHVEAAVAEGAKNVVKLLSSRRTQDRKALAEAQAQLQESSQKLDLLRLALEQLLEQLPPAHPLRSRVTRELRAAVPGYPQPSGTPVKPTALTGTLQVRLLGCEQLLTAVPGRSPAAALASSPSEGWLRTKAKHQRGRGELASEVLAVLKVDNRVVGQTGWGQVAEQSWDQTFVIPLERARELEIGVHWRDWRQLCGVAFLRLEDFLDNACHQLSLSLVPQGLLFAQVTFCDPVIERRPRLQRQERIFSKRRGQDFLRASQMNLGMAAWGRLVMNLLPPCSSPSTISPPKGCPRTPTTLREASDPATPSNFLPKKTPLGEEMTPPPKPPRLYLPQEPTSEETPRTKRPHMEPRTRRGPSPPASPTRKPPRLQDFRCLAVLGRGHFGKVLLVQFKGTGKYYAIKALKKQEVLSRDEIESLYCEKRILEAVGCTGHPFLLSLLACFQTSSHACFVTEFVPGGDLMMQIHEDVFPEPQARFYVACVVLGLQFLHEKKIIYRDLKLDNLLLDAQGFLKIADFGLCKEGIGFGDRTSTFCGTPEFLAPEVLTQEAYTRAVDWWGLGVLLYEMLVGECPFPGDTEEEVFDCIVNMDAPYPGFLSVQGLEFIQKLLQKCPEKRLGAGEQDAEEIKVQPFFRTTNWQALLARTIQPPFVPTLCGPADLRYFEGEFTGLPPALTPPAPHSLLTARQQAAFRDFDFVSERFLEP
As for the experimental part:
as §1

The target in another assay is T8, SIK3 (Homo sapiens, UniProt Q9Y2K2).
T8 construct: purchased Reaction Biology Europe GmbH (formerly ProQinase)
T8 sequence (Q9Y2K2 whole entry): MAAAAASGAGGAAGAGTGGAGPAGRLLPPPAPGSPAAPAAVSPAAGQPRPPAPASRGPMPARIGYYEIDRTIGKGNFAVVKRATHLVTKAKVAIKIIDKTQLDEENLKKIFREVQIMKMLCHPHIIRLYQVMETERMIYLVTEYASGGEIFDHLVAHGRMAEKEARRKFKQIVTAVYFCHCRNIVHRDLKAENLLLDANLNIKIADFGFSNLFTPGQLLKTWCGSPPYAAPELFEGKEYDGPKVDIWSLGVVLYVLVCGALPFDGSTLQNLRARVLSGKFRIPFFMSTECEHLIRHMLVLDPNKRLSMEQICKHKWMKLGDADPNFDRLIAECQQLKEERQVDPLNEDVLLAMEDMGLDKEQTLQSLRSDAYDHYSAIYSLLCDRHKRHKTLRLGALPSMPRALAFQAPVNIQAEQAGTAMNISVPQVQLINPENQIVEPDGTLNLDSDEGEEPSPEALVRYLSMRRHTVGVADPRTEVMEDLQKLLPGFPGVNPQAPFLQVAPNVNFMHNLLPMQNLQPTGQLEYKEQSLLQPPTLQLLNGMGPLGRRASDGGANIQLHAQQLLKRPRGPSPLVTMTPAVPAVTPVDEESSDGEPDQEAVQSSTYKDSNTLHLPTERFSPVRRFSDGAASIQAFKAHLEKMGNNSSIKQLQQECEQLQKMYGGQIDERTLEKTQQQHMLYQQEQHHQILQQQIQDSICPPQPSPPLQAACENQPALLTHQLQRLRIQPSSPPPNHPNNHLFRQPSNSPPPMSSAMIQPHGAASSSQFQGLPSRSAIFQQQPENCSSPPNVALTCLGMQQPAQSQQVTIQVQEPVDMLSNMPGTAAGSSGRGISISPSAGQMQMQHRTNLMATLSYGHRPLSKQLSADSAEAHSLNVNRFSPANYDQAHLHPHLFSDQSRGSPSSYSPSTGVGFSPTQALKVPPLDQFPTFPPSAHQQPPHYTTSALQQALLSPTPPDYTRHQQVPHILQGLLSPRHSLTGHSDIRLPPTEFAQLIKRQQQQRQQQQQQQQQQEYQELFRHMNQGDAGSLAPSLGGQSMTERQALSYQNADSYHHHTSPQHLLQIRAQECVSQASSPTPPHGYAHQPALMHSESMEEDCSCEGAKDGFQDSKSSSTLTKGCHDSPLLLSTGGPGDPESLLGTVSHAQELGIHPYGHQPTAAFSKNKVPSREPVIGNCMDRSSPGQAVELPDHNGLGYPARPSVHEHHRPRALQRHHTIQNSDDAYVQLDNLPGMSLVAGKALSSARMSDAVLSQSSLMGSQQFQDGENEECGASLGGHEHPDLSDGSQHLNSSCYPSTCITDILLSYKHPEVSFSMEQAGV
As for the experimental part:
as §1

For another assay, the target named is T9, TGFBR2 (Homo sapiens, UniProt P37173).
T9 construct: purchased Reaction Biology Europe GmbH (formerly ProQinase)
As for the experimental part:
as §1

The target of a further assay is T10, VEGFR1 (Homo sapiens, UniProt P17948).
T10 construct: purchased Reaction Biology Europe GmbH (formerly ProQinase)
T10 sequence (P17948 27-1338): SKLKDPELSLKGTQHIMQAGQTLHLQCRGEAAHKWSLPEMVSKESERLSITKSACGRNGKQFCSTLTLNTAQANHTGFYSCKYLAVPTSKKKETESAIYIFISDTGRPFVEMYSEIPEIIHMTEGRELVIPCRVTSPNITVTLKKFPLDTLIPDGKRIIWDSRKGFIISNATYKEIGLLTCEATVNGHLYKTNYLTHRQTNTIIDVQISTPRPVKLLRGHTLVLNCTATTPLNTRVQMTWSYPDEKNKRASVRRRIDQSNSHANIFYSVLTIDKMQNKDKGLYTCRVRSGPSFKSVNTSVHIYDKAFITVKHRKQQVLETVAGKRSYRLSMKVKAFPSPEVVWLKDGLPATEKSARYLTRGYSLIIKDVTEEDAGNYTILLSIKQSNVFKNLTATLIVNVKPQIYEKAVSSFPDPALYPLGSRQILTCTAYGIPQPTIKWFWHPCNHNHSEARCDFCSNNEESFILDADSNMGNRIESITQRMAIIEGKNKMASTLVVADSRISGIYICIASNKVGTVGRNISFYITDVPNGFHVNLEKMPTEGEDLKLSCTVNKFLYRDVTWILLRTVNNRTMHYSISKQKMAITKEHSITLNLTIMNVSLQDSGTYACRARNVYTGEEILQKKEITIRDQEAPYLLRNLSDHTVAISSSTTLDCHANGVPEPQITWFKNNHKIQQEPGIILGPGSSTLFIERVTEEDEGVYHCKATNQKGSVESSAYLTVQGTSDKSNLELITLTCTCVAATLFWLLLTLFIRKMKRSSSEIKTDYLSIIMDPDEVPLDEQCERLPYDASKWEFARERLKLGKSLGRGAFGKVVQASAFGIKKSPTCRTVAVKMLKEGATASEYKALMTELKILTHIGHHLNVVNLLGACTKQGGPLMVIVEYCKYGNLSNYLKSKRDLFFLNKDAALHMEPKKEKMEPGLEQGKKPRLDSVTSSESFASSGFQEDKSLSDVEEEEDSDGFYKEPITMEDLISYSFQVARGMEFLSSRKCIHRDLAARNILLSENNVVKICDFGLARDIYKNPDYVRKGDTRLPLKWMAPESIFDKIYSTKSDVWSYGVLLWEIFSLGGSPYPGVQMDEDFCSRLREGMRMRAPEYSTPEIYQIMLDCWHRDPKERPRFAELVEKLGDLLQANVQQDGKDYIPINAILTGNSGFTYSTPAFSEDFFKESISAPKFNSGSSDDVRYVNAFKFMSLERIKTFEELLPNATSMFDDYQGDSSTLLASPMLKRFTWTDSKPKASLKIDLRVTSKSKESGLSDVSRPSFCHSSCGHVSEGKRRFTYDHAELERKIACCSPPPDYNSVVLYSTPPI
Here is the method: as §1

T1 sequence (P78368 whole entry): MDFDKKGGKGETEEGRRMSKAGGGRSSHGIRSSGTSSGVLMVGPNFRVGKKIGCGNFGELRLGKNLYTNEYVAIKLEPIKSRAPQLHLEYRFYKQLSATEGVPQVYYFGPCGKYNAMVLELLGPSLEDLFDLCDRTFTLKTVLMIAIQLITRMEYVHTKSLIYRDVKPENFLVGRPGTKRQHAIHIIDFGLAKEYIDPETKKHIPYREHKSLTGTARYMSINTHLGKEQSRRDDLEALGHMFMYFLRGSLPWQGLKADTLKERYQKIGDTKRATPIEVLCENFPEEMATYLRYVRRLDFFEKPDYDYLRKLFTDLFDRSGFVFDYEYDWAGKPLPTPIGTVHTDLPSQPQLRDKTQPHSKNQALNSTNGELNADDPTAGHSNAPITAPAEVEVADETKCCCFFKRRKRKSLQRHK

Turning to `c1ccc(CNc2cc(-c3c[nH]c4ncccc34)ccn2)cc1` [meriolin 36], the residual kinase activity on CK1γ2 (0.3 µM) is recorded as 19 % of control; on CK1γ2 (3 µM), 3 % of control; on CK2α2 (0.3 µM), 91 % of control; at CK2α2 (3 µM), 43 % of control; on CLK2 (0.3 µM), 1 % of control; on CLK2 (3 µM), 2 % of control. The residual kinase activity at DCAMKL2 (0.3 µM) was 91 % of control; at DCAMKL2 (3 µM), 81 % of control; on DDR2 (0.3 µM), 59 % of control; at DDR2 (3 µM), 17 % of control; on MKNK2 (0.3 µM) it was 16 % of control; at MKNK2 (3 µM), 3 % of control. Besides, the residual kinase activity at PKN3 (0.3 µM) was 27 % of control; at PKN3 (3 µM), 3 % of control; at SIK3 (0.3 µM), 72 % of control; on SIK3 (3 µM), 32 % of control; on TGFBR2 (0.3 µM) it was 72 % of control; on TGFBR2 (3 µM) it was 24 % of control. In addition, the residual kinase activity at VEGFR1 (0.3 µM) was 83 % of control; at VEGFR1 (3 µM) it was 43 % of control.
For the compound `COc1ccnc2[nH]cc(-c3cc(N)nc(N)c3)c12` [meriolin 16], the residual kinase activity on CK1γ2 (0.03 µM) is 86 % of control; on CK1γ2 (0.3 µM), 30 % of control; at CK2α2 (0.03 µM), 110 % of control; at CK2α2 (0.3 µM), 105 % of control; at CLK2 (0.03 µM) it was 8 % of control; on CLK2 (0.3 µM), 1 % of control. Moreover, the residual kinase activity is on record as 92 % of control on DCAMKL2 (0.03 µM); 85 % of control on DCAMKL2 (0.3 µM); 105 % of control at DDR2 (0.03 µM); 93 % of control at DDR2 (0.3 µM); 93 % of control on MKNK2 (0.03 µM); 62 % of control on MKNK2 (0.3 µM). The residual kinase activity at PKN3 (0.03 µM) was 83 % of control; on PKN3 (0.3 µM), 74 % of control; at SIK3 (0.03 µM), 106 % of control; on SIK3 (0.3 µM), 88 % of control; on TGFBR2 (0.03 µM), 109 % of control; on TGFBR2 (0.3 µM), 85 % of control. Also, the residual kinase activity on VEGFR1 (0.03 µM) is given as 110 % of control; at VEGFR1 (0.3 µM) it was 89 % of control.
